Common to all, as to format: functional
Conditions in all cases: Homo sapiens

One experiment has as its system U-251. Description: The compound was evaluated for cytotoxicity against U251 CNS cancer cell line.
The subject of the next experiment is LOX IMVI. Description: The compound was evaluated for cytotoxicity against LOX-IMVI melanoma cell line.
A further experiment concerns PC-3. The experiment is described as follows: The compound was evaluated for cytotoxicity against PC-3 prostate cancer cell line.
The test system of another experiment is MOLT-4. Description: The compound was evaluated for cytotoxicity against MOLT-4 leukemia cell line.
A further experiment has as its system IGROV-1. The experiment is described as follows: The compound was evaluated for cytotoxicity against IGROV1 ovarian cancer cell line.
In the next experiment the test system is MDA-N. The experiment is described as follows: The compound was evaluated for cytotoxicity against MDA-N breast cancer cell line.
The next experiment has as its system CAKI-1. Description: The compound was evaluated for cytotoxicity against CAKI-1 renal cancer cell line.
Another experiment concerns NCI-H322M. The experiment is described as follows: The compound was evaluated for cytotoxicity against NCI-H322M non-small cell lung cancer cell line.
Another experiment has as its system HCT-116. The experiment is described as follows: The compound was evaluated for cytotoxicity against HCT116 colon cancer cell line.

As a reminder, the GI50 is the concentration at which growth is held to half of that of the control. Higher therefore signals less potent growth inhibition.

`Cc1c2ccncc2c(C)c2c1[nH]c1ccc(CNCCN(C)C)cc12`: the 50% growth inhibitory concentration (GI50) with U-251 amounted to 280 nM; in the experiment on LOX IMVI it was 160 nM; in the experiment on PC-3, 380 nM; in the experiment on MOLT-4 it was 100 nM; in the experiment with IGROV-1, 150 nM; with MDA-N, 280 nM. Besides, the GI50 in the experiment with CAKI-1 is 260 nM; in the experiment on NCI-H322M it was 250 nM; with HCT-116 it was 170 nM.

(Values after ChEMBL document CHEMBL1129835, “Selective cytotoxicity of certain 9-substituted ellipticines for leukemia cells in a variety of leukemia cell cultures” (1997).)
